# Laboratory results from ChEMBL document CHEMBL1201862, “PubChem BioAssay data set” (2004).
# The source made the active and inactive calls.
# Legend:
# [1] = target: Potassium voltage-gated channel subfamily KQT member 2 (Rattus norvegicus, UniProt O88943); test: retigabine-insensitive KCNQ2 potentiators, concentration-response, dose response, cell-based, retigabine-insensitive compounds (AID 2654); format: functional
# [2] = target: T1, Voltage-gated N-type calcium channel alpha-1B subunit/Amyloid beta A4 precursor protein-binding family A member 1 (Homo sapiens, UniProt Q00975+Q02410); test: disruptors of Mint-PDZ/N-type channel peptide interaction – biochemical, HTRF, SAR follow-up (AID 2489); format: functional
# [3] = target: T1, Voltage-gated N-type calcium channel alpha-1B subunit/Amyloid beta A4 precursor protein-binding family A member 1; test: disruptors of Mint-PDZ/N-type channel peptide interaction – biochemical, HTRF, set 2, SAR follow-up (AID 434980); format: functional
# [4] = target: T2, Small ubiquitin-related modifier 1 (Homo sapiens, UniProt P63165); test: inhibitors of SUMO1 partner interactions, dose response, biochemical, FRET (AID 624383); format: functional; conditions: read-out: IC50_Mean
# NS3 = NS3 (Hepatitis C virus, UniProt A3EZJ3); test: PubChem AID 2173; set-up: species or system Hepacivirus hominis
# [5] = target: Induced myeloid leukemia cell differentiation protein Mcl-1 (Homo sapiens, UniProt Q07820); format: functional
# [6] = target: DNA (cytosine-5)-methyltransferase 1 (Homo sapiens, UniProt P26358); test: DNMT1 methyltransferase inhibitors, confirmation, biochemical, fluorescent molecular beacon (AID 602386); format: functional
# [7] = target: T2, Small ubiquitin-related modifier 1; test: inhibitors of SUMO1 peptide binding, dose response, biochemical, fluorescence polarization, uHTS hits (AID 624382); format: functional; conditions: read-out: IC50_Mean
# Albumin = Albumin (Bos taurus, UniProt P02769); test: Counterscreen for inhibitors of T-cell receptor (TCR)-CD3 interaction: Fluorescence-based biochemical high throughput dose response assay to identify inhibitors of T-cell receptor (TCR)-CD3 interaction using a TAMRA-labeled BSA probe.; format: functional
# Genome polyprotein = Genome polyprotein (dengue virus type 2, UniProt P29990); test: Dengue-2 NS5 methyltransferase inhibitors, primary screen, biochemical, confirmation dose response (AID 588689); format: functional
# [8] = target: T3, Zinc finger protein mex-5 (Caenorhabditis elegans, UniProt Q9XUB2); test: MEX-5/TCR-2 RNA interaction inhibitors, dose response, biochemical, C. elegans, fluorescence polarization (AID 1960)
# T3 sequence (Q9XUB2 whole entry): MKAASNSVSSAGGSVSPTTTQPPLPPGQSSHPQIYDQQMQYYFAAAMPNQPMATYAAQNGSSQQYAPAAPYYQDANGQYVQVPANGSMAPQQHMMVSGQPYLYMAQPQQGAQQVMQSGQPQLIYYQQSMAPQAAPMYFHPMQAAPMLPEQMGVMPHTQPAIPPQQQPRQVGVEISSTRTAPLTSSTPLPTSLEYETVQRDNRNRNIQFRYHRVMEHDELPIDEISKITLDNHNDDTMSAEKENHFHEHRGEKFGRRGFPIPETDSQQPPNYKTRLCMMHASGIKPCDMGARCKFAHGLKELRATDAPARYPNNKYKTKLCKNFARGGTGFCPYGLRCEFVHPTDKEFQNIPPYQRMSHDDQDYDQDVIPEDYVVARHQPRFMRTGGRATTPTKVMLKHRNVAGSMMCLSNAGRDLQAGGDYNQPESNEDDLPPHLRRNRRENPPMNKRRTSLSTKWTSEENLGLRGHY
# [9] = target: T4, Polyadenylate-binding protein 1 (Homo sapiens, UniProt P11940); test: PABP1 MLLE–PAM2 binding inhibitor potency, dose response, biochemical, fluorescence polarization, FITC-PAM2 peptide (AID 602259); format: functional; conditions: read-out: IC50_Mean
# [10] = target: T4, Polyadenylate-binding protein 1; test: PABP1 MLLE–PAM2 interaction inhibitors, dose response, miRNA deadenylation inhibitor project, biochemical, fluorescence polarization, Cy5-PAM2 peptide, secondary (AID 602260); format: functional; conditions: read-out: IC50_Mean
# [11] = target: T5, RNA-binding protein pos-1 (Caenorhabditis elegans, UniProt G5EF15); test: inhibitors of POS-1/mex-3 RNA binding, dose response, biochemical, fluorescence polarization (AID 1964);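 note: purified POS-1 fused to maltose binding protein made in E. coli; potency of compounds blocking POS-1 binding to fluorescent RNA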
# T5 sequence (G5EF15 whole entry): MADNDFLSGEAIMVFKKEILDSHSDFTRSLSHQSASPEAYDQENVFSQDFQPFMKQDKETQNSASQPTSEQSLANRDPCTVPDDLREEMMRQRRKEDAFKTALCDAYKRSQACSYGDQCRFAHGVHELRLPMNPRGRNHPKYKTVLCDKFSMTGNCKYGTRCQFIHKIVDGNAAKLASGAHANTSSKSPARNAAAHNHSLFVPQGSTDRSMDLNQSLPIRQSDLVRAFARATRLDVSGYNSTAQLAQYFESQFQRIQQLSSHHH
# Protein Rev = Protein Rev (Human immunodeficiency virus type 1 group M subtype B (isolate HXB2)(HIV-1), UniProt P04618); test: inhibitors of Rev binding to RRE RNA, dose response, biochemical, fluorescence polarization, HIV-1 (AID 434976); set-up: species or system Human immunodeficiency virus 1
# [12] = target: Female germline-specific tumor suppressor gld-1 (Caenorhabditis elegans, UniProt Q17339); test: inhibitors of GLD-1 binding to TGE RNA, dose response, biochemical, fluorescence polarization, C. elegans (AID 2802);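 note: fluorescence polarization of labeled TGE RNA bound by purified gld-1 protein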
# Hexokinase HKDC1 = target: T6, Hexokinase HKDC1 (Homo sapiens, UniProt Q2TB90); test: HKDC1 hexokinase inhibitors, dose response, biochemical, W721R variant (AID 504729); format: functional
# T6 sequence (Q2TB90 whole entry): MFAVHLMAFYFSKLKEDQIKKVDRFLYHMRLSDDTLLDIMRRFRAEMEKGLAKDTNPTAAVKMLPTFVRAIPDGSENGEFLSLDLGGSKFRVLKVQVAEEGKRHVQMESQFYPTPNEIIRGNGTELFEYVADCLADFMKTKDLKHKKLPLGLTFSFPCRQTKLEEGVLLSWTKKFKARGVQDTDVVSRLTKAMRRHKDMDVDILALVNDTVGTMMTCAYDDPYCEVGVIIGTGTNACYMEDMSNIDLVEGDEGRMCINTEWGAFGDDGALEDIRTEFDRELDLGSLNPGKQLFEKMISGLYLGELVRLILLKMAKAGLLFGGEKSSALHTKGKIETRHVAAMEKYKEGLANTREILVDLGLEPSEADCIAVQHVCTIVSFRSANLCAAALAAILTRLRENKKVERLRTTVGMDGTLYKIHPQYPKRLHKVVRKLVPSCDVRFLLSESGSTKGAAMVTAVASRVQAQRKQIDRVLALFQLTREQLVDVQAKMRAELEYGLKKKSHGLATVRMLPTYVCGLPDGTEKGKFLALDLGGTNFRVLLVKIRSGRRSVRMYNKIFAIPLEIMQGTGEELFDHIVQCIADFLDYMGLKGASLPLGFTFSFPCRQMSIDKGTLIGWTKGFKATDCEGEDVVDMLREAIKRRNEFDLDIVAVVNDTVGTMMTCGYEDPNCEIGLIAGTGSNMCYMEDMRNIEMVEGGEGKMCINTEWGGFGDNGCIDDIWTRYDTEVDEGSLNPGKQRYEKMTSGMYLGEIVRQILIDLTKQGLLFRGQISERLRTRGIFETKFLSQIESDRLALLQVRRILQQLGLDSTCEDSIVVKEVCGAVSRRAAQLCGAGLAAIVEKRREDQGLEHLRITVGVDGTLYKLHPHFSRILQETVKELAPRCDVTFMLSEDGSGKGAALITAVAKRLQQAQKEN
# CHO = test: cytotoxicity in TLR9-MyD88 CHO cells, dose response, cytotoxicity control for TLR9-MyD88 binding inhibitor project, cell-based, luminescence (AID 588339); format: functional, hamster; conditions: Cricetulus griseus;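 note: CHO cells stably coexpressing TLR9 and MyD88 fusions from primary screen; compound exposure lasted 48 hours before viability readout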
# [13] = target: T7, Histone-lysine N-methyltransferase NSD2 (Homo sapiens, UniProt O96028); format: biochemical
# T7 sequence (O96028 whole entry): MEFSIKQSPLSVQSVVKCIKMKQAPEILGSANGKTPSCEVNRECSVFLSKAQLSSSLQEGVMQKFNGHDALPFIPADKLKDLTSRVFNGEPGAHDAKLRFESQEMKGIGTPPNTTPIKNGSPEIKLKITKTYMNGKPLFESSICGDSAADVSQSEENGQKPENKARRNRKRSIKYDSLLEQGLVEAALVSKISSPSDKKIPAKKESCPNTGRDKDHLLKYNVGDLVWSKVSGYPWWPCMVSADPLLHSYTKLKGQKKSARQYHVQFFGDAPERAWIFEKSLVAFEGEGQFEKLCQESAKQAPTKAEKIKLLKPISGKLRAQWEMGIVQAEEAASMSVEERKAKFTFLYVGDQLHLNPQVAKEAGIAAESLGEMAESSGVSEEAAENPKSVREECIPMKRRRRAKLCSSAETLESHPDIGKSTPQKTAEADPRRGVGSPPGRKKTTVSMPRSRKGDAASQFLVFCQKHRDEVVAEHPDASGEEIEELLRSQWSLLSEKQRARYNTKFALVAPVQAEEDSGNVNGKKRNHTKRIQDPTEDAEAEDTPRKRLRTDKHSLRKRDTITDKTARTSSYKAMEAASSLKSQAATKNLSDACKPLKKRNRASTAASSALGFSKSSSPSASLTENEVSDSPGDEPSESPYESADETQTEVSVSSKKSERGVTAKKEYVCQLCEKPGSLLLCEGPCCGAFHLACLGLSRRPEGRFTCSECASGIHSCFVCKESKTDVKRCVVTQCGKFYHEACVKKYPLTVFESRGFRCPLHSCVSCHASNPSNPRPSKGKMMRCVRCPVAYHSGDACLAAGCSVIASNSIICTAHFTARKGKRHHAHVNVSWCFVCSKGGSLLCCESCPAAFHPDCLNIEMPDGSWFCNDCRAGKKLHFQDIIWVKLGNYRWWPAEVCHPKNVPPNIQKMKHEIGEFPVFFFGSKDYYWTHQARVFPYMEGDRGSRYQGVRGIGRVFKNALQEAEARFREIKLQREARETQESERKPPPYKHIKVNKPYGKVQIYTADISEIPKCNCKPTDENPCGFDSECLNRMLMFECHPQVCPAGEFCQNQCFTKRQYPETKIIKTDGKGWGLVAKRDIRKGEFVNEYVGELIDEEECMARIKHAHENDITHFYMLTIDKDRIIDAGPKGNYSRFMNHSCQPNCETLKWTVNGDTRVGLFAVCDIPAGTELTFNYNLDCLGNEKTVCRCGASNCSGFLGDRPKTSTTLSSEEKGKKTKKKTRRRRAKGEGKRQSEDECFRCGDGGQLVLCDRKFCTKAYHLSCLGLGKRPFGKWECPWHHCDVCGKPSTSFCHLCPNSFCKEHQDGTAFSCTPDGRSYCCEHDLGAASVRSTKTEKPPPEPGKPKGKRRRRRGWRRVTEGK
# [14] = target: Glucose-6-phosphate 1-dehydrogenase (Homo sapiens, UniProt P11413); test: human G6PD enzyme inhibitors, dose response, selectivity assay for P. falciparum G6PD inhibitor project, biochemical, fluorescence (AID 504792); format: functional
# Beta Lactamase = Beta Lactamase (Pseudomonas aeruginosa, UniProt Q932Y6); test: beta-lactamase reporter inhibitor potency, dose response, artefact control for TLR9-MyD88 binding inhibitor project, BLA reporter cells, FRET fluorescence (AID 588341); format: cell-based;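 note: cell based assay in CHO-K1 cells stably expressing beta-lactamase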
# [15] = target: Heat shock protein HSP 90-alpha (Homo sapiens, UniProt P07900); format: functional, organism-based
# [16] = target: T8, Rac GTPase-activating protein 1 (Homo sapiens, UniProt Q9H0H5); test: MgcRacGAP GTPase-activating activity inhibitors, confirmation, biochemical, ADP Hunter fluorescence, primary and confirmatory (AID 624330); format: functional
# T8 sequence (Q9H0H5 whole entry): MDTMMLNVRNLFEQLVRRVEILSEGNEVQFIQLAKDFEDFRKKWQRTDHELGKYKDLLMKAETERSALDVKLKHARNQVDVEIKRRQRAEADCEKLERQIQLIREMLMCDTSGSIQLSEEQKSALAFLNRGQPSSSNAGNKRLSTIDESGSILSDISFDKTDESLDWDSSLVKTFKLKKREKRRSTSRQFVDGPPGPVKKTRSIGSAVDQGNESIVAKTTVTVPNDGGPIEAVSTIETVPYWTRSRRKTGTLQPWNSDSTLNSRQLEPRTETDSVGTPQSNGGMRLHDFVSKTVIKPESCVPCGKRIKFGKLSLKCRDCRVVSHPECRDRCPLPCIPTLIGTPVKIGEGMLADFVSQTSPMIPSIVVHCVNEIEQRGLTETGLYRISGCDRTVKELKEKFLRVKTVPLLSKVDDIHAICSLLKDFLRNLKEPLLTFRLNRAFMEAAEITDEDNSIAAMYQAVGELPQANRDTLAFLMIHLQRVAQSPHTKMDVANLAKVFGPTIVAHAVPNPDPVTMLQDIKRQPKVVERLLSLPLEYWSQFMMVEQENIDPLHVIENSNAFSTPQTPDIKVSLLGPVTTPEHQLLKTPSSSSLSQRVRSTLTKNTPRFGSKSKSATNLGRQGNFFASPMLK
# Beta-galactosidase = Beta-galactosidase (Escherichia coli, UniProt Q8VNN2); test: beta-galactosidase enzyme inhibitors and activators, dose response, artefact control for CCR6 antagonist project, biochemical, E. coli enzyme, set 3 (AID 504712); format: functional
# T4 sequence (P11940 whole entry): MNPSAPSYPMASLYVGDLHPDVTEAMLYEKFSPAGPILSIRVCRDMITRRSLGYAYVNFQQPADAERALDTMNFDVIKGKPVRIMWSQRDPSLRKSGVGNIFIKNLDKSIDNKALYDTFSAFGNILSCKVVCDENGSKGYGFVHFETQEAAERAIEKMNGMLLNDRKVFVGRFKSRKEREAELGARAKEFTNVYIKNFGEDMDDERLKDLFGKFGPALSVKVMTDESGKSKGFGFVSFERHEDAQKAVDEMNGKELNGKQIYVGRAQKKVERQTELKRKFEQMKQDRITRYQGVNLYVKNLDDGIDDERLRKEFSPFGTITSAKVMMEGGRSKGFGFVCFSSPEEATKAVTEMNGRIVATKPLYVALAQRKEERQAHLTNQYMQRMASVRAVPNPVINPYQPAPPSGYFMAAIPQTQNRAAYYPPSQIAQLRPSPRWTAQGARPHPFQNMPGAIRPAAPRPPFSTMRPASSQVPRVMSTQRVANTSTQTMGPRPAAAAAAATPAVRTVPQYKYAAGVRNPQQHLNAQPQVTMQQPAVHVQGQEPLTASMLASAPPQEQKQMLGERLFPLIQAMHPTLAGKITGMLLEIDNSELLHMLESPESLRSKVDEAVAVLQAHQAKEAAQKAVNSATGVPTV
# Chain of Potassium voltage-gated channel subfamily KQT member 2 (O88943 whole entry): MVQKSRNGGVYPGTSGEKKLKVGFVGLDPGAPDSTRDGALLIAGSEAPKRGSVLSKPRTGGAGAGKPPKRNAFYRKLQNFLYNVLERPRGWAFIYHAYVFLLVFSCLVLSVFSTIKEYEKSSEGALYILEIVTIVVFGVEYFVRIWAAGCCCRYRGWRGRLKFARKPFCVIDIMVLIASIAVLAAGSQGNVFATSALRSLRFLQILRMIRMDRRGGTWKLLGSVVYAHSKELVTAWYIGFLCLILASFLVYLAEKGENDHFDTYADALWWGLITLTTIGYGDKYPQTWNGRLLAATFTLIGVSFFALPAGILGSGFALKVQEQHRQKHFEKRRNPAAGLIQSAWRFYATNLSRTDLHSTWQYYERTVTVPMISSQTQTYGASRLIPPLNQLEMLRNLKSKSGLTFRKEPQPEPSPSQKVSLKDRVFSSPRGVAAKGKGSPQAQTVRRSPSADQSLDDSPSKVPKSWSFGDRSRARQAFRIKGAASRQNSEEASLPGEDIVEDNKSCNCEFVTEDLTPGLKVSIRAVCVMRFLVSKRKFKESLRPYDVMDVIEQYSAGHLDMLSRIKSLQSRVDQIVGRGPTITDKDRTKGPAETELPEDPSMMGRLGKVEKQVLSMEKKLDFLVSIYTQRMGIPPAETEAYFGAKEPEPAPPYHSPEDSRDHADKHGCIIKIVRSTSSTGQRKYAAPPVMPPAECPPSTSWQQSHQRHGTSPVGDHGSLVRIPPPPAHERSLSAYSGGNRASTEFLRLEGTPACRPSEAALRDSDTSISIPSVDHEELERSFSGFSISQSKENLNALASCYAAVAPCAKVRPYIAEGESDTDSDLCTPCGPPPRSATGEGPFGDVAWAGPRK
# T1 sequence (Q00975 whole entry): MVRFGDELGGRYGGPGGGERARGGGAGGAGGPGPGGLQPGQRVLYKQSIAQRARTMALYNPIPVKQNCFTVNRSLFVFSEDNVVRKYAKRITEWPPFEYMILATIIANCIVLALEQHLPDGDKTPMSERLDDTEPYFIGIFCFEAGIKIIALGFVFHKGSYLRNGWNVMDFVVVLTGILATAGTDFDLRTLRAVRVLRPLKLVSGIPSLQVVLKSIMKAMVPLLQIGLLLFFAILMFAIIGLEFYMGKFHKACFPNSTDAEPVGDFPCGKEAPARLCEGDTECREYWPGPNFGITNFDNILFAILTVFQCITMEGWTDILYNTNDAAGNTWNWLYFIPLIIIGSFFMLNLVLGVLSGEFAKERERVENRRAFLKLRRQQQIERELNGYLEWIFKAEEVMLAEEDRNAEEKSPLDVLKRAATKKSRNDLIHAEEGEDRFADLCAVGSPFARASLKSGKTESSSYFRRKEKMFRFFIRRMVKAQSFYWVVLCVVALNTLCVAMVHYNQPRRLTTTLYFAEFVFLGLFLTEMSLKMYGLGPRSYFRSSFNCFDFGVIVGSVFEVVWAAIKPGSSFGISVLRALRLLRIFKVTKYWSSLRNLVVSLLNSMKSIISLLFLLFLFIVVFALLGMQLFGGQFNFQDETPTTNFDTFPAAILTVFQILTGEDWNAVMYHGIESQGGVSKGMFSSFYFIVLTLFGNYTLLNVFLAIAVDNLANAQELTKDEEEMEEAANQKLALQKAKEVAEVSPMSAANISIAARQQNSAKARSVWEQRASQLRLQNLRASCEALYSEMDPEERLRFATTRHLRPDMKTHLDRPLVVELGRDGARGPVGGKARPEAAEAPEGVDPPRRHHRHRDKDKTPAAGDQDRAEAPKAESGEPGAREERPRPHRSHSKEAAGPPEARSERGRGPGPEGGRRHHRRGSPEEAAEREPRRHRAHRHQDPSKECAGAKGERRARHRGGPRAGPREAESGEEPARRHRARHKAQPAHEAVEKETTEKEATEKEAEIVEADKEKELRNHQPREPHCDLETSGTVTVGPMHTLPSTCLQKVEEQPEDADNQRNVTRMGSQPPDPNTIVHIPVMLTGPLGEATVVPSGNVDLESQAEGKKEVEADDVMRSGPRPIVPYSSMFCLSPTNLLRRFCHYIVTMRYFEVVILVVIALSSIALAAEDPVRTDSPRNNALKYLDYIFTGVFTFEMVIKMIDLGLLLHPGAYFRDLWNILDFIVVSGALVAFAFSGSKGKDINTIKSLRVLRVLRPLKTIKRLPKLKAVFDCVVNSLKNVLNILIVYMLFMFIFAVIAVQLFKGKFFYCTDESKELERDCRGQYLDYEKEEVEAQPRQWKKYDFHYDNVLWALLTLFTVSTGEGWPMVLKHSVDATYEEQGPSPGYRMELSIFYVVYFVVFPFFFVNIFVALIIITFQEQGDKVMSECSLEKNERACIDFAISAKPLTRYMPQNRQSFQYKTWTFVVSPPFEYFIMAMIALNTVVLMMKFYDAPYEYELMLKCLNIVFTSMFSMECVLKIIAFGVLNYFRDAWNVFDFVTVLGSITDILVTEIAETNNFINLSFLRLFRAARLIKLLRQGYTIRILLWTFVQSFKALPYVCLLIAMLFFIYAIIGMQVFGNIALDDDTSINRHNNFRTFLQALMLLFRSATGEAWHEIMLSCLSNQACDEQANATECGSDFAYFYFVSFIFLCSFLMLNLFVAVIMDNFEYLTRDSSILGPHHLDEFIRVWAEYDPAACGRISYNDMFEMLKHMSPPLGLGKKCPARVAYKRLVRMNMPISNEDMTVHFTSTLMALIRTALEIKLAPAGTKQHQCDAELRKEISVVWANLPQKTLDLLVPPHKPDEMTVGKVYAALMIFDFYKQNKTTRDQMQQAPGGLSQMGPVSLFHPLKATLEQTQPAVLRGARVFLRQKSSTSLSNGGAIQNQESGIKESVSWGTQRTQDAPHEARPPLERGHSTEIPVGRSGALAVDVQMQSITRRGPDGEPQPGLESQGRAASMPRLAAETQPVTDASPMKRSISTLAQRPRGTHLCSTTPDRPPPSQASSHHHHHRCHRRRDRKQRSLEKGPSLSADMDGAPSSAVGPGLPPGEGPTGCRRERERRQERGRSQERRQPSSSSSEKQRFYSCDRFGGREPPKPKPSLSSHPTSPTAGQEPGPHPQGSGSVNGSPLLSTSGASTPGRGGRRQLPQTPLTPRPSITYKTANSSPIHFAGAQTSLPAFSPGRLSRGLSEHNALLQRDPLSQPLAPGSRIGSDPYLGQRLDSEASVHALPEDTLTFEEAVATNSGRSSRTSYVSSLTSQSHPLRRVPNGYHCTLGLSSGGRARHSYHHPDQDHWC
# T1 sequence (Q02410 whole entry): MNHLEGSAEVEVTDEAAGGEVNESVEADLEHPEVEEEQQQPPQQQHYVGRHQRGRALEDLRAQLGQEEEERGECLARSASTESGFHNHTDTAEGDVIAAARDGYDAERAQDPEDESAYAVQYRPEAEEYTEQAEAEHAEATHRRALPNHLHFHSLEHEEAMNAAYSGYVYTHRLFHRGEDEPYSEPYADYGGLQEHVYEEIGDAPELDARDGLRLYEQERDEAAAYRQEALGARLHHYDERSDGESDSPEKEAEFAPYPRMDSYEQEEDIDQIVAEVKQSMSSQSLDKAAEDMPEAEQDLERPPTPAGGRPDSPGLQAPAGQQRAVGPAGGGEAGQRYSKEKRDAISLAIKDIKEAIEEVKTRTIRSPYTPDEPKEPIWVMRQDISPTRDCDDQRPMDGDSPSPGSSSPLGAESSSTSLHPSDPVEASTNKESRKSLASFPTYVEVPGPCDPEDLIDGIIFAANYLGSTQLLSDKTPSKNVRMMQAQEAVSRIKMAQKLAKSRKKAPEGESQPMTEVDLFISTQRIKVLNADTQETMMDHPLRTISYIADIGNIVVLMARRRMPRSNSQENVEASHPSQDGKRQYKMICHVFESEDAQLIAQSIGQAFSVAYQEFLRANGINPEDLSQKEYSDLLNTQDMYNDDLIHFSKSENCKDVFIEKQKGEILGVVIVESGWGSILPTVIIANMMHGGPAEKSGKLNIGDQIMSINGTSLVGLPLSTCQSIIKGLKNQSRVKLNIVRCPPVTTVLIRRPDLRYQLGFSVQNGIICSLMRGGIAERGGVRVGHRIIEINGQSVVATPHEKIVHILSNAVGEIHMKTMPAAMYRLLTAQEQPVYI
# T2 sequence (P63165 whole entry): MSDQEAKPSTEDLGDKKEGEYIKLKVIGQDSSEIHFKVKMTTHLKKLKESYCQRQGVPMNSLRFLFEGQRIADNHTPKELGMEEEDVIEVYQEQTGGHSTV
# Chain of Beta Lactamase (Q932Y6 whole entry): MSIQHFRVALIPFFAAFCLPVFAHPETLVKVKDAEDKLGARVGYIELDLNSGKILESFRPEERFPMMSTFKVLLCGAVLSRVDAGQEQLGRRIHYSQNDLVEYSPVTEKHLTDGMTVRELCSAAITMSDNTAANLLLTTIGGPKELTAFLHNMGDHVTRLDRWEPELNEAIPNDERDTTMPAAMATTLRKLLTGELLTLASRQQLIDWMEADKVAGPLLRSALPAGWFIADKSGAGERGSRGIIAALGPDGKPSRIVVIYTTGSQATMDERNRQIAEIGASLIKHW
compound,measurement,setting,value
O=C(Nc1cccnc1)Nc1cccc(Cl)c1,EC50,[1],18.3 µM (active)
COC(=O)c1cc(N2C(=O)C3C(C2=O)C2(C)C=CC3(C)O2)ccc1Cl (centres undefined),IC50,[2],> 56.8 µM (inactive)
same,IC50,[3],> 56.8 µM (inactive)
O=C(O)c1ccccc1/C=N/NC(=O)c1cc(-c2ccco2)nc2ccccc12,IC50,[4],9.51 µM (active)
same,IC50,NS3,7.35 µM (active)
same,IC50,[5],2.54 µM (active)
same,IC50,[6],5.4 µM (active)
same,IC50,[7],> 66.6 µM (inactive)
same,IC50,Albumin,> 94.1 µM (inactive)
O=C1c2ccccc2C(=O)c2c1cccc2N(CCO)CCO,IC50,Genome polyprotein,28.8 µM (active)
same,EC50,[8],17 µM (active)
same,IC50,[9],47.7 µM (inactive)
same,IC50,[10],> 66 µM (inactive)
same,EC50,[11],19.6 µM (active)
same,IC50,Protein Rev,8.44 µM (active)
same,IC50,[12],5.51 µM (active)
O=C1C(Cl)=C(NCCc2ccccc2)C(=O)c2ccccc21,IC50,Hexokinase HKDC1,7.92 µM (active)
same,IC50,Genome polyprotein,9.15 µM (active)
same,IC50,[9],> 66 µM (inactive)
same,IC50,CHO,1.58 µM (active)
same,IC50,[10],> 66 µM (inactive)
same,AC50,[13],3.78 µM (active)
same,IC50,[14],19.7 µM (active)
same,IC50,Beta Lactamase,17.7 µM (inactive)
same,AC50,[15],3.38 µM (active)
same,IC50,[16],218 µM (active)
same,IC50,Beta-galactosidase,> 66.6 µM (inactive)
O=C(NCc1ccc(Cl)cc1Cl)Nc1ccc(Cl)nc1,EC50,[1],3.74 µM (active)
O=C(CSc1nnc(CCCN2C(=O)c3cccc4cccc(c34)C2=O)n1-c1ccccc1)N1CCN(CCO)CC1,IC50,Hexokinase HKDC1,9.27 µM (active)
